US7166695B2, “Affinity markers for human serum albumin” (ConjuChem Biotechnologies Inc., priority 1997, dated 2007)
Each block holds one compound with its values, some of them ahead of it. Where a SMILES comes first, the peptide text is derived from it. [ ]: non-standard residue; d: D form. The star is where a group is joined. X1 = O=C1N[C@H]2[C@H](CS[C@H]2CCCCC(=O)Oc2ccc(C(=O)*)cc2)N1; Benzoyl(4-OH) = O=C(c1ccc(O)cc1)*

What was measured:
HSA [1] = target: T1, HSA (Homo sapiens, UniProt P02768); experiment: Kinetic study by ELISA capture in human plasma; assay type: biochemical; conditions: 100 μM in human plasma, RT, 0-60 min
Method: The samples were then allowed to incubate at RT for 0, 5, 10, 15, 30 and 60 min, when 5 μL of each sample was diluted with 295 μL PBS and kept at −20° C. before use. The samples were then diluted to 2 μg/mL using PBS and transferred to an ELISA plate previously coated with polyclonal anti-human serum albumin (procedure described above). The plates were then rinsed with PBS-Tween 20 (0.05%) three times, and then with PBS. Goat polyclonal anti-biotin (Pierce) (1:200, v/v, in PBS containing 0.05% BSA) was then added to the plates, allowed to incubate for 1 h at RT, rinsed with PBS-Tween 20 (0.05%) three times, and then with PBS. The plates were then treated with 100 μL of peroxidase-conjugated rabbit anti-goat IgG (Jackson Immuno Research) diluted 1/100,000 with PBS for 20 min at RT. The plates were then rinsed with PBS-Tween 20 (0.05%) three times, and then with PBS. […] The plates were then read on a SpectraMax 250 at λ 490 nm.
At each time mentioned in the figure, 2 μg/mL of each sample was captured on an ELISA plate initially coated with polyclonal anti-HSA, treated with goat polyclonal anti-biotin, followed by peroxidase conjugated rabbit anti-goat IgG and OD read at 490 nm using SpectraMax 250.

commercial human plasma = experiment: Kinetic studies using HPLC, reaction in commercial human plasma; assay type: biochemical; conditions: 100 μM in commercial human plasma
Method: (§1) The chromatograms were each integrated using identical data parameters and resulting calculated areas under each peak converted to concentrations and plotted against time.
FIG. 12 plots the rate of appearance of the leaving group, HO-Ph-CO-FlYEE-NH2, vs. time (seconds) as a result of the reaction of 100 μM biotin-OPh-CO-FlYEE-NH2 in commercial human plasma. Due to overlapping peaks in the HPLC chromatogram, the rate of disappearance of biotin-OPh-CO-FlYEE-NH2 cannot be determined.

dog albumin = target: T2, dog albumin (Canis lupus familiaris, UniProt P49822); experiment: Biotinylation of whole blood; SDS-PAGE and immunoblot with peroxidase labeled streptavidin; assay type: biochemical; conditions: samples of whole blood
T2 construct: Whole blood was incubated with biotin ester for 1 h at room temperature, then plasma was extracted by centrifugation; from tissue; host or cells: dog whole blood
T2 sequence (P49822 25-608): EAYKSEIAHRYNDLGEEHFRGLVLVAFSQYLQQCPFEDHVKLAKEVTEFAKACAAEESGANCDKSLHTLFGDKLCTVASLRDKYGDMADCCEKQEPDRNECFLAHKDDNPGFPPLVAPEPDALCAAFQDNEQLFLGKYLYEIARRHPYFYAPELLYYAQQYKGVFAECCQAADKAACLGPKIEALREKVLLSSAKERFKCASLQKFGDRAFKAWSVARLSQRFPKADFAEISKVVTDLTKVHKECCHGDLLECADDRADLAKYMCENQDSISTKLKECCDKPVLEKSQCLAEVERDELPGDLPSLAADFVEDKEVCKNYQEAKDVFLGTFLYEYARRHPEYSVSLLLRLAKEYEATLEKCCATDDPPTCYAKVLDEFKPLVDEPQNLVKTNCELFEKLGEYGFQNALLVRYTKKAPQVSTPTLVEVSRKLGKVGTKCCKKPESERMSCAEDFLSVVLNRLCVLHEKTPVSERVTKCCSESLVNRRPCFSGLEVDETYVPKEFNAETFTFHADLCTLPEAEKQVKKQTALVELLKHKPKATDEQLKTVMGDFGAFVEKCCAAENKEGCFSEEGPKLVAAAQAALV

fraction V HSA [2] = target: T3, fraction V HSA (Homo sapiens, UniProt P02768); experiment: Kinetic studies using HPLC, reaction with fraction V HSA in PBS; assay type: biochemical; conditions: 100 μM compound and 600 μM HSA in PBS
T3 construct: purchased Calbiochem
Source text: as §1
FIG. 11 plots the rate of disappearance of biotin-OPh-CO—NH2 vs. time and the rate of appearance of the leaving group, HO-Ph-CO—NH2, vs. time.
Due to overlapping peaks in the HPLC chromatogram, the rate of disappearance of biotin-OPh-CO-FlYEE-NH2 cannot be determined.

pig albumin = target: T4, pig albumin (Sus scrofa, UniProt P08835); experiment: Biotinylation of whole blood; SDS-PAGE and immunoblot with peroxidase labeled streptavidin; assay type: biochemical; conditions: samples of whole blood
T4 construct: Whole blood was incubated with biotin ester for 1 h at room temperature, then plasma was extracted by centrifugation; from tissue; host or cells: pig whole blood
T4 sequence (P08835 25-607): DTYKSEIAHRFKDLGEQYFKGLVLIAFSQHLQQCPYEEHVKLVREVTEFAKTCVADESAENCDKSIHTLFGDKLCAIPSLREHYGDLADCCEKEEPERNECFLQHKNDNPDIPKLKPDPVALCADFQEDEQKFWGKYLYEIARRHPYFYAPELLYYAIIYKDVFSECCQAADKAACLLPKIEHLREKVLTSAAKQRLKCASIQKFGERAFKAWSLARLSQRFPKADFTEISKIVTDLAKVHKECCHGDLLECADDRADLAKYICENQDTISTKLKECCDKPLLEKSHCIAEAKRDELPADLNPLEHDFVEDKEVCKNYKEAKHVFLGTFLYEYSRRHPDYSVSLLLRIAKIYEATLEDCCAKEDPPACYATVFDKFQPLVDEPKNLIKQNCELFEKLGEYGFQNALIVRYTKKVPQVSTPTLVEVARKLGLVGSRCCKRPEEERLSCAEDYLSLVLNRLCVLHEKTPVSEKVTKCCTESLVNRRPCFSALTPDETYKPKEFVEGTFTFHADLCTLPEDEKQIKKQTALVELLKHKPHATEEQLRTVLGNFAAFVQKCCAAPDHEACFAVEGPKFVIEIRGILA

[3] = Hydrolysis in PBS followed by HPLC; assay type: physicochemical; conditions: pH 7.4, RT (FIG. 13), read-out: half-life of hydrolysis of the phenol ester (converted)
Source text: as §1

fraction V HSA [4] = target: T3, fraction V HSA; experiment: Competition ELISA test; assay type: binding
Method: A solution of 100 μL rabbit polyclonal anti-human serum albumin. (Boehringer) diluted at 1/5000 in PBS was coated overnight at 4° C. onto ELISA plates (Nunc). These plates were then saturated with 5% BSA (Sigma) in PBS for 2 h at RT. For the competition test, varying concentrations of HO-Ph-CO-FlYEE-NH2, 44 μM biotin-OPh-CO-FlYEE-NH2, and 15 μM of fraction V HSA were incubated for 1 h at 37° C. To assess the ability of biotin-OPh-CO-FlYEE-NH2 to displace HO-Ph-CO-FlYEE-NH2, varying concentrations of HO-Ph-CO-FlYEE-NH2 were incubated with HSA for 1 h at 37° C., then 44 μM of biotin-OPh-CO-FlYEE-NH2 was added and allowed to incubate at 37° C. for 1 h. The reaction mixtures were then centrifuged through 30 kDa Centricon tubes (Sarthorious) to a volume of 50 μL, diluted with 500 μL of PBS, then re-concentrated to 50 μL. This process was then repeated and transferred to the ELISA plate previously coated with polyclonal anti-human serum albumin (procedure described above). These plates were then rinsed with PBS-Tween 20 (0.05%) three times, then with PBS. Peroxidase-labeled streptavidin (1:500, v/v, in PBS containing 0.05% BSA) was then added to the plates, allowed to incubate for 20 min at RT, rinsed with PBS-Tween 20 (0.05%) three times, and then with PBS. […] The plates were then read on a SpectraMax 250 at λ 490 nm.
FIG. 8 plots optical density as a function of the concentration of HO-Ph-CO-FlYEE-NH2. […] The HSA was captured on an ELISA plate initially coated with polyclonal anti-HSA, treated with peroxidase labeled streptavidin and OD read at 490 nm using SpectraMax 250.
In these experiments, solutions of 0 to 50 molar excess HO-Ph-CO-FlYEE-NH2 and 15 μM fraction V HSA were incubated for 1 h at RT when 44 μM of biotin-OPh-CO-FlYEE-NH2, was added and reaction incubated for 1 h at 37° C. The HSA was captured on an ELISA plate initially coated with polyclonal anti-HSA, treated with peroxidase labeled streptavidin and OD read at 490 nm using SpectraMax 250.

HSA [5] = target: T1, HSA; experiment: Mass spectral analysis of tryptic digest of HSA:LC-biotin; conditions: HPLC peaks at 78 and 85 min
Method: LC-biotin is biotin-NH—(CH2)5—C(O)—.
The specificity with which biotin-OPh-CO-FlYEE-NH2 reacts with a specific lysine residue on HSA was determined by mass spectral analysis of a tryptic digest of LC-biotin conjugated to HSA by LC-biotin-OPh-CO-FlYEE-NH2 (FIG. 15). Using LC -biotin-OPh-CO-FlYEE-NH2 instead of biotin-OPh-CO-FlYEE-NH2 facilitated a larger mass separation in the mass spectrum and identification of HSA from HSA:LC-biotin. […] This mass accounts only for the addition of one LC-biotin and since the fragment at 78 min contains only one Lys residue and LC-biotin is attached to it, and this peptide sequence contains the previous sequence, the only lysine residue in this sequence where biotin could be attached is Lys519.

[6] = target: human serum albumin (HSA) (Homo sapiens, UniProt P02768); experiment: Biotinylation of whole blood, plasma or serum; SDS-PAGE and immunoblot with peroxidase labeled streptavidin; conditions: 100 or 600 μM, 1 h at 37° C.
Method: The reaction samples were allowed to incubate for 1 h at RT or 37° C. For the whole blood sample, the plasma was extracted from whole blood at the end of reaction. […] These additional samples were diluted 1/60 in PBS and analyzed directly on SDS-PAGE, immunoblot, ELISA, or frozen at −20° C. until use. As positive controls, 50 μM of NHS-LC-biotin (Pierce) and 100 μM of D-biotin were used. Protein assay was performed using BCA kit (Pierce).
Proteins were separated by SDS-PAGE under non-reducing conditions (Laemmli, 1970), transferred to 0.1 μM-pore nitrocellulose sheets (Schleicher and Schuell) and probed with peroxidase labeled streptavidin (Jackson Immuno Research).
Whole blood was incubated with biotin ester for 1 h at room temperature, then plasma was extracted by centrifugation. A 5 μg sample was separated by 8% SDS-PAGE and transferred onto blot. The immunoblot was blocked with 5% skim milk (Nestle) and then incubated with peroxidase labeled-streptavidin diluted at 1/5000 in PBS-BSA 0.5% for 20 min at RT. An ECL kit was used to detect peroxidase labeled-streptavidin on Hyperfilm ECL (Amersham), exposed for 1 min.
A 5 μg portion of each sample was separated by 8% SDS-PAGE and transferred onto blot. The immunoblot was blocked with 5% skim milk (Nestle) and then incubated with peroxidase labeled-streptavidin diluted at 1/5000 in PBS-BSA 0.5% for 20 min at RT. […]

- rate of biotin addition (optical density vs time, FIG. 10) (HSA [1]): accelerated rate of biotin addition
- specificity of labeling for dog albumin (immunoblot) (dog albumin): not for pig or dog albumin
- half-reaction (fraction V HSA [2]): about 125 min
- specificity of labeling for pig albumin (immunoblot) (pig albumin): not for pig or dog albumin
- half-life [3]: ~173 h
Compound: CC(C)C[C@@H](NC(=O)[C@H](Cc1ccccc1)NC(=O)c1ccc(OC(=O)CCCC[C@@H]2SC[C@@H]3NC(=O)N[C@@H]32)cc1)C(=O)N[C@@H](Cc1ccc(O)cc1)C(=O)N[C@@H](CCC(=O)O)C(=O)N[C@@H](CCC(=O)O)C(N)=O [biotin-OPh-CO-FlYEE-NH2] (X1-F[dL]YEE-NH2)
- half-reaction (commercial human plasma): about 6 min
- portion reacted with protein target (commercial human plasma; after five minutes (FIG. 12)): more than half

- direct competition with biotin-OPh-CO-FlYEE-NH2 for HSA (FIG. 8) (fraction V HSA [4]; 0-100 molar excess, 44 μM biotin-OPh-CO-FlYEE-NH2, 15 μM HSA, 1 h at 37° C.): occupies a specific binding site on HSA
Compound: HO-Ph-CO-FlYEE-NH2 ({Benzoyl(4-OH)}-F[dL]YEE-NH2) [leaving group liberated from biotin-OPh-CO-FlYEE-NH2]
- effect of prior incubation with HSA on binding of biotin-OPh-CO-FlYEE-NH2 (FIG. 9) (fraction V HSA [4]; 0 to 50 molar excess incubated with 15 μM HSA for 1 h, then 44 μM biotin-OPh-CO-FlYEE-NH2 1 h at 37° C.): prevents binding of biotin-OPh-CO-FlYEE-NH2
- effect of competition on rate of reaction (fraction V HSA [4]; between 1 to 5 molar excess of HO-Ph-CO-FlYEE-NH2): very minor effect on the rate of reaction

Compound: LC-biotin-OPh-CO-FlYEE-NH2
- lysine residue of HSA where LC-biotin is attached (HSA [5]): Lys519

Compound: biotin-OPh-CO—NH2 [reference compound]
- rate of biotin addition (optical density vs time, FIG. 10) (HSA [1]): on the base line
- half-reaction (fraction V HSA [2]): about 330 min
- selectivity of labeling (immunoblot, FIG. 7) [6]: does not label selectively
